According to US8680159B2, “Bradykinin 1 receptor modulating compounds” (Gruenenthal GmbH, priority 2010, dated 2014):

Legend:
[1] = target: T1, human B1R receptor (CHO K1 cells stably transfected with the human B1R gene) (Homo sapiens, UniProt P46663); assay: Functional study on the bradykinin receptor 1 (B1R), Ca2+ fluorescence (Fluo-4) FLIPR/Novostar assay, hB1R cells; type: cell-based; conditions: CHO-K1, read-out: % inhibition (human B1R) at 10 μM
T1 construct: expressed in transfected cells; host or cells: CHO K1 cells (Chinese hamster ovary), stably transfected
T1 sequence (P46663 1-353): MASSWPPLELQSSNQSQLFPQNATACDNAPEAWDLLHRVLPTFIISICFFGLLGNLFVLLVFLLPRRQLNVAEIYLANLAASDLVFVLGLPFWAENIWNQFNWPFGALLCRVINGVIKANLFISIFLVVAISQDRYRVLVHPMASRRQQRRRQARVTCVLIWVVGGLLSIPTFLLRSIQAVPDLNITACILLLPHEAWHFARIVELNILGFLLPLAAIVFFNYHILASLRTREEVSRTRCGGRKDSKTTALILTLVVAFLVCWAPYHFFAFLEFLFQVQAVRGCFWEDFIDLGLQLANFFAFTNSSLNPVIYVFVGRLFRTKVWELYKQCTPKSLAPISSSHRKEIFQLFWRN
Outline: (§1)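 Test compounds (10 μM) were added first and the Ca2+ rise was scored as % activation against Lys-Des-Arg9-bradykinin (≥50 nM, human) or Des-Arg9-bradykinin (≥1 μM, rat). After 6-20 min, the matching agonist was given at its EC80, and % inhibition relative to maximal achievable inhibition was calculated.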

[2] = target: T2, B1R receptor of the rat (CHO K1 cells stably transfected with the B1R gene of the rat) (Rattus norvegicus, UniProt P97583); assay: Functional study on the bradykinin receptor 1 (B1R), Ca2+ fluorescence (Fluo-4) FLIPR/Novostar assay, rB1R cells; type: cell-based; conditions: CHO-K1, 10 μM, read-out: % inhibition (rat B1R) at 10 μM
T2 construct: expressed in transfected cells; host or cells: CHO K1 cells (Chinese hamster ovary), stably transfected
T2 sequence (P97583 1-337): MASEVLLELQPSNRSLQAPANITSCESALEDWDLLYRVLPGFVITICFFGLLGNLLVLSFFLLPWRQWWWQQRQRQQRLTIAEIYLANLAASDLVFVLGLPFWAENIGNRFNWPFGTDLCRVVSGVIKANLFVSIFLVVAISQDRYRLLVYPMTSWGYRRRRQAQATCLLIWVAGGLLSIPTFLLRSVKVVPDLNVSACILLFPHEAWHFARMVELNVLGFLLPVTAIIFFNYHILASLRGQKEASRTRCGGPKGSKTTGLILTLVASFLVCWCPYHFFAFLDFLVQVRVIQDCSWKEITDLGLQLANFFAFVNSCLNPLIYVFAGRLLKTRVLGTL
Outline: as §1

| SMILES | inhibition at 10 µM [1] | inhibition at 10 µM [2] |
| --- | --- | --- |
| CN(C(=O)c1ccc2c(c1)[C@H](NC(=O)C1(c3ccccc3F)CC1)CC2)C1CCN(c2ccncc2)CC1 [Example H-46, (3R)-3-[[1-(2-Fluorophenyl)-cyclopropanecarbonyl]amino]-N-methyl-N-(1-pyridin-4-yl-piperidin-4-yl)-2,3-dihydro-1H-indene-5-carboxylic acid amide] | 100% | 103% |
| CN(C(=O)c1ccc2c(c1)[C@H](NC(=O)C1(c3ccccc3F)CCCC1)CC2)C1CCN(c2ccncc2)CC1 [Example H-47, (3R)-3-[[1-(2-Fluorophenyl)-cyclopentanecarbonyl]amino]-N-methyl-N-(1-pyridin-4-yl-piperidin-4-yl)-2,3-dihydro-1H-indene-5-carboxylic acid amide] | 100% | 104% |
| CN(C(=O)c1ccc2c(c1)[C@H](NC(=O)c1ccccc1Cl)CC2)C1CCN(Cc2ccnc(N3CCCC3)c2)CC1 [Example H-48, (3R)-3-[(2-Chloro-benzoyl)amino]-N-methyl-N-[1-[(2-pyrrolidin-1-yl-pyridin-4-yl)-methyl]-piperidin-4-yl]-2,3-dihydro-1H-indene-5-carboxylic acid amide] | 11% | 75% |
| Cc1cc(N2CCC(CN(C)C(=O)c3ccc4c(c3)[C@H](NC(=O)c3ccccc3Cl)CC4)CC2)ccn1 [Example H-49, (3R)-3-[(2-Chloro-benzoyl)amino]-N-methyl-N-[[1-(2-methyl-pyridin-4-yl)-piperidin-4-yl]-methyl]-2,3-dihydro-1H-indene-5-carboxylic acid amide] | 85% | 101% |
| COc1ccc(N2CCC(N(C)C(=O)c3ccc4c(c3)[C@H](NC(=O)c3ccccc3Cl)CC4)CC2)cc1 [Example H-50, (3R)-3-[(2-Chloro-benzoyl)amino]-N-[1-(4-methoxyphenyl)-piperidin-4-yl]-N-methyl-2,3-dihydro-1H-indene-5-carboxylic acid amide] | 23% | 86% |
| CN(C(=O)c1ccc2c(c1)[C@H](NC(=O)C1(c3ccccc3Cl)CC1)CC2)C1CCN(c2ccncc2)CC1 [Example H-51, (3R)-3-[[1-(2-Chlorophenyl)-cyclopropanecarbonyl]amino]-N-methyl-N-(1-pyridin-4-yl-piperidin-4-yl)-2,3-dihydro-1H-indene-5-carboxylic acid amide] | 99% | 105% |
| Cc1cc(N2CCC(CN(C)C(=O)c3ccc4c(c3)CC[C@H]4N3Cc4cccc(Cl)c4C3=O)CC2)ccn1 [Example H-52, (1R)-1-(4-Chloro-3-oxo-1,2-dihydro-isoindol-2-yl)-N-methyl-N-[[1-(2-methyl-pyridin-4-yl)-piperidin-4-yl]-methyl]-2,3-dihydro-1H-indene-5-carboxylic acid amide] | 98% | 73% |
| CN(C(=O)c1ccc2c(c1)CC[C@H]2N1Cc2cccc(Cl)c2C1=O)C1CCN(Cc2ccnc(N3CCCC3)c2)CC1 [Example H-53, (1R)-1-(4-Chloro-3-oxo-1,2-dihydro-isoindol-2-yl)-N-methyl-N-[1-[(2-pyrrolidin-1-yl-pyridin-4-yl)-methyl]-piperidin-4-yl]-2,3-dihydro-1H-indene-5-carboxylic acid amide] | 56% | 50% |
| Cc1cc(N2CCC(CCNC(=O)c3ccc4c(c3)[C@H](NC(=O)c3ccccc3Cl)CC4)CC2)ccn1 [Example H-56, (3R)-3-[(2-Chloro-benzoyl)amino]-N-[2-[1-(2-methyl-pyridin-4-yl)-piperidin-4-yl]-ethyl]-2,3-dihydro-1H-indene-5-carboxylic acid amide] | 99% | 102% |
| Cc1cc(N2CCC(N(C)C(=O)c3ccc4c(c3)[C@H](NC(=O)c3ccccc3Cl)CC4)CC2)nc(C)n1 [Example H-59, (3R)-3-[(2-Chloro-benzoyl)amino]-N-[1-(2,6-dimethyl-pyrimidin-4-yl)-piperidin-4-yl]-N-methyl-2,3-dihydro-1H-indene-5-carboxylic acid amide] | 99% | 103% |
| CN(C(=O)c1ccc2c(c1)[C@H](NC(=O)c1ccccc1Cl)CC2)C1CCN(c2ccncc2)CC1(C)C (stereo partly drawn) [Example H-60, (3R)-3-[(2-Chloro-benzoyl)amino]-N-(3,3-dimethyl-1-pyridin-4-yl-piperidin-4-yl)-N-methyl-2,3-dihydro-1H-indene-5-carboxylic acid amide] | 99% | 103% |
| CN(C(=O)c1ccc2c(c1)[C@H](NC(=O)c1ccccc1Cl)CC2)C1CCC(c2ccncc2)CC1 (stereo partly drawn) [Example H-61, (3R)-3-[(2-Chloro-benzoyl)amino]-N-methyl-N-(4-pyridin-4-yl-cyclohexyl)-2,3-dihydro-1H-indene-5-carboxylic acid amide] | 32% | 77% |
| Cc1cc(C(=O)N[C@@H]2CCc3ccc(C(=O)N(C)C4CCN(c5ccncc5)CC4)cc32)no1 [Example H-62, 5-Methyl-N-[(1R)-6-[methyl-(1-pyridin-4-yl-piperidin-4-yl)-carbamoyl]-2,3-clihydro-1H-inden-1-yl]-isoxazole-3-carboxylic acid amide] | 100% | 99% |
| CN(C(=O)c1ccc2c(c1)[C@H](NC(=O)CC(F)(F)F)CC2)C1CCN(c2ccncc2)CC1 [Example H-63, (3R)-N-Methyl-N-(1-pyridin-4-yl-piperidin-4-yl)-3-(3,3,3-trifluoro-propanoylamino)-2,3-dihydro-1H-indene-5-carboxylic acid amide] | 100% | 96% |
| CC(C)CN(C(=O)c1ccccc1Cl)[C@@H]1CCc2ccc(C(=O)N(C)C3CCN(c4ccncc4)CC3)cc21 [Example H-65, (3R)-3-[(2-Chloro-benzoyl)-(2-methyl-propyl)-amino]-N-methyl-N-(1-pyridin-4-yl-piperidin-4-yl)-2,3-dihydro-1H-indene-5-carboxylic acid amide] | 100% | 107% |

Results, then the compound that gave them:

| inhibition at 10 µM [1] | inhibition at 10 µM [2] | SMILES |
| --- | --- | --- |
| 29% | 93% | CN(C(=O)c1ccc2c(c1)[C@H](NC(=O)c1ccccc1Cl)CC2)C1CCN(c2ccc(Cl)cc2)CC1 [Example H-54, (3R)-3-[(2-Chloro-benzoyl)amino]-N-[1-(4-chlorophenyl)-piperidin-4-yl]-N-methyl-2,3-dihydro-1H-indene-5-carboxylic acid amide] |
| 99% | 104% | Cc1cc(N2CCC(N(C)C(=O)c3ccc4c(c3)[C@H](NC(=O)c3ccccc3Cl)CC4)CC2)ccn1 [Example H-55, (3R)-3-[(2-Chloro-benzoyl)amino]-N-methyl-N-[1-(2-methyl-pyridin-4-yl)-piperidin-4-yl]-2,3-dihydro-1H-indene-5-carboxylic acid amide] |
| 100% | 100% | CN(C(=O)c1cc2c(cc1F)[C@H](NC(=O)c1ccccc1Cl)CC2)C1CCN(c2ccncc2)CC1 [Example H-57, (1R)-1-[(2-Chloro-benzoyl)amino]-6-fluoro-N-methyl-N-(1-pyridin-4-yl-piperidin-4-yl)-2,3-dihydro-1H-indene-5-carboxylic acid amide] |
| 100% | 98% | CN(C(=O)c1ccc2c(c1)[C@H](NC(=O)C(C)(C)c1ccccc1Cl)CC2)C1CCN(c2ccncc2)CC1 [Example H-58, (3R)-3-[[2-(2-Chlorophenyl)-2-methyl-propanoyl]amino]-N-methyl-N-(1-pyridin-4-yl-piperidin-4-yl)-2,3-dihydro-1H-indene-5-carboxylic acid amide] |
| 96% | 97% | CN(CC1CCN(c2ccncc2)CC1)C(=O)c1ccc2c(c1)[C@H](NC(=O)c1ccccc1Cl)CC2 [Example H-64, (3R)-3-[(2-Chloro-benzoyl)amino]-N-methyl-N-[(1-pyridin-4-yl-piperidin-4-yl)-methyl]-2,3-dihydro-1H-indene-5-carboxylic acid amide] |
| 93% | 99% | CN(CCC1CCN(c2ccncc2)CC1)C(=O)c1ccc2c(c1)[C@H](NC(=O)c1ccccc1Cl)CC2 [Example H-66, (3R)-3-[(2-Chloro-benzoyl)amino]-N-methyl-N-[2-(1-pyridin-4-yl-piperidin-4-yl)-ethyl]-2,3-dihydro-1H-indene-5-carboxylic acid amide] |
